The record followed here is the supplement of paper PMC10307832.

Assay in all cases: relative viability (nuclei count vs DMSO), 5 days (fraction); higher = more cells survive
Compound in test [1]: CC1=C(C(=NN1)C)CC2=C(C3=C(S2)N(C(=O)N(C3=O)C)CC(C)C)C(=O)N4C[C@@H](CO4)O + CCNC(=O)c1noc(-c2cc(C(C)C)c(O)cc2O)c1-c1ccc(CN2CCOCC2)cc1 [Luminespib] (partner 0.01 µM)
In outline:
(§1)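 Lung cancer cell lines were pin-tool dosed in 1536-well plates on the day after seeding, with either a lone drug or a fixed anchor-drug dose plus five library-drug doses (not always all listed) in √10 steps. Nuclei were counted on 4× images after 5 days. Relative viability is the ratio of treated-well to vehicle-well nuclei counts, with each value a median of duplicate plates.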

Compound in test [2]: CC1=C(C(=NN1)C)CC2=C(C3=C(S2)N(C(=O)N(C3=O)C)CC(C)C)C(=O)N4C[C@@H](CO4)O + Nc1ncn([C@H]2C[C@H](O)[C@@H](CO)O2)c(=O)n1 [Decitabine] (partner 2 µM)
In outline:
as §1

Compound in test [3]: CC1=C(C(=NN1)C)CC2=C(C3=C(S2)N(C(=O)N(C3=O)C)CC(C)C)C(=O)N4C[C@@H](CO4)O + N=C(N)NC(=N)NCCc1ccccc1 [Phenformin] (partner 250 µM)
The procedure, abridged: as §1

Compound in the test “IDH-C35 + Linsitinib”: Cc1ccccc1C(C(=O)NC1CCCCC1)N(C(=O)Cn1ccnc1C)c1cccc(F)c1 [IDH-C35] + C[C@]1(O)C[C@@H](c2nc(-c3ccc4ccc(-c5ccccc5)nc4c3)c3c(N)nccn32)C1 [Linsitinib] (partner 1 µM)
In outline: as §1

With NCI-H322M, the relative viability in test [1] (first compound 0.0025 µM) worked out at 0.927; in test [1] (first compound 0.007906 µM), 0.714; in test [1] (first compound 0.025 µM) it was 0.86; in test [1] (first compound 0.07906 µM), 0.887; in test [1] (first compound 0.25 µM), 0.861; in test [2] (first compound 0.0025 µM), 0.63. For the same cell line, the relative viability in test [2] (first compound 0.007906 µM) is 0.736; in test [2] (first compound 0.025 µM), 0.698; in test [2] (first compound 0.07906 µM), 0.659; in test [2] (first compound 0.25 µM) it was 0.707; in test [3] (first compound 0.0025 µM) it was 0.825; in test [3] (first compound 0.007906 µM), 0.673. Besides, the relative viability was 0.793 in test [3] (first compound 0.025 µM); 0.93 in test [3] (first compound 0.07906 µM); 0.829 in test [3] (first compound 0.25 µM); 0.965 in the test with IDH-C35 + Linsitinib (first compound 0.08 µM); 0.878 in the test with IDH-C35 + Linsitinib (first compound 0.253 µM); 0.81 with IDH-C35 + Linsitinib (first compound 0.8 µM). Further, the results for the relative viability with IDH-C35 + Linsitinib (first compound 2.53 µM) and with IDH-C35 + Linsitinib (first compound 8 µM) were 0.95 and 0.794, respectively.

NCI-H1395: the relative viability came out at 0.768 in test [1] (first compound 0.0025 µM); 0.785 in test [1] (first compound 0.007906 µM); 0.607 in test [1] (first compound 0.025 µM); 0.461 in test [1] (first compound 0.07906 µM); 0.631 in test [1] (first compound 0.25 µM); 0.801 in test [2] (first compound 0.0025 µM). Moreover, the relative viability in test [2] (first compound 0.007906 µM) is 0.68; in test [2] (first compound 0.025 µM), 0.707; in test [2] (first compound 0.07906 µM) it was 0.763; in test [2] (first compound 0.25 µM), 0.694; in test [3] (first compound 0.0025 µM) it was 0.336; in test [3] (first compound 0.007906 µM) it was 0.316. Also, the relative viability came to 0.298 in test [3] (first compound 0.025 µM); 0.314 in test [3] (first compound 0.07906 µM); 0.312 in test [3] (first compound 0.25 µM); 1.2 with IDH-C35 + Linsitinib (first compound 0.08 µM); 1.04 with IDH-C35 + Linsitinib (first compound 0.253 µM); 1.1 with IDH-C35 + Linsitinib (first compound 0.8 µM). Moreover, the relative viability with IDH-C35 + Linsitinib (first compound 2.53 µM) stood at 1.09; in the test with IDH-C35 + Linsitinib (first compound 8 µM), 0.956.

As for NCI-H358, the relative viability in test [1] (first compound 0.0025 µM) was found to be 0.342; in test [1] (first compound 0.007906 µM), 0.471; in test [1] (first compound 0.025 µM), 0.401; in test [1] (first compound 0.07906 µM), 0.447; in test [1] (first compound 0.25 µM), 0.308; in test [2] (first compound 0.0025 µM), 0.198. Also, the relative viability was found to be 0.237 in test [2] (first compound 0.007906 µM); 0.208 in test [2] (first compound 0.025 µM); 0.204 in test [2] (first compound 0.07906 µM); 0.217 in test [2] (first compound 0.25 µM); 0.35 in test [3] (first compound 0.0025 µM); 0.395 in test [3] (first compound 0.007906 µM). In addition, the relative viability in test [3] (first compound 0.025 µM) amounted to 0.337; in test [3] (first compound 0.07906 µM), 0.311; in test [3] (first compound 0.25 µM) it was 0.36; in the test with IDH-C35 + Linsitinib (first compound 0.08 µM) it was 0.746; in the test with IDH-C35 + Linsitinib (first compound 0.253 µM) it was 0.719; with IDH-C35 + Linsitinib (first compound 0.8 µM), 0.786. For the same cell line, the results for the relative viability with IDH-C35 + Linsitinib (first compound 2.53 µM) and with IDH-C35 + Linsitinib (first compound 8 µM) were 0.713 and 0.649, respectively.

As for NCI-H838, the relative viability in test [1] (first compound 0.0025 µM) stood at 0.295; in test [1] (first compound 0.007906 µM) it was 0.265; in test [1] (first compound 0.025 µM), 0.312; in test [1] (first compound 0.07906 µM), 0.273; in test [1] (first compound 0.25 µM), 0.239; in test [2] (first compound 0.0025 µM), 0.447. Further, the relative viability in test [2] (first compound 0.007906 µM) stood at 0.489; in test [2] (first compound 0.025 µM), 0.43; in test [2] (first compound 0.07906 µM), 0.455; in test [2] (first compound 0.25 µM), 0.444; in test [3] (first compound 0.0025 µM) it was 0.567; in test [3] (first compound 0.007906 µM) it was 0.594. Further, the relative viability was 0.433 in test [3] (first compound 0.025 µM); 0.453 in test [3] (first compound 0.07906 µM); 0.489 in test [3] (first compound 0.25 µM); 1.08 with IDH-C35 + Linsitinib (first compound 0.08 µM); 0.959 with IDH-C35 + Linsitinib (first compound 0.253 µM); 0.949 with IDH-C35 + Linsitinib (first compound 0.8 µM). Besides, the values for the relative viability with IDH-C35 + Linsitinib (first compound 2.53 µM) and in the test with IDH-C35 + Linsitinib (first compound 8 µM) were 1.04 and 0.943, respectively.
